# Results published in patent publication US20170029355A1, “LABILE ESTERS OF AGROCHEMICALS FOR CONTROLLED RELEASE AND REDUCTION OF OFF-SITE MOVEMENT” (Monsanto Technology LLC, priority 2011, published 2017).
# Tests used:
# [1] = tested on: velvetleaf; experiment: Greenhouse post-emergent control of velvetleaf by emulsifiable concentrates (Example 29); type: in vivo; details: three weeks after treatment
# Method: (§1) The efficacy of some photo-labile ester formulations from Example 28 for post-emergent control of velvetleaf was tested in the greenhouse. All formulations were tested at rates of 140, 280, 420, and 560 g dicamba equivalent per hectare rates and compared to the diglycolamine salt of dicamba (CLARITY®) at the same rates and untreated control plants. The velvetleaf plants were 10-15 cm in height at the time of spraying. Percent control was evaluated three weeks after treatment.
# [2] = tested on: velvetleaf; experiment: Greenhouse post-emergent control of velvetleaf by emulsifiable concentrates (Example 30); type: in vivo
# Method: as §1
# The methodology of Example 29 was used to evaluate the efficacy of several photo-labile esters of dicamba for post-emergent control of velvetleaf as emulsifiable concentrate formulations described in Example 28.
# [3] = tested on: glyphosate-tolerant, dicamba-sensitive soy plants; experiment: Humidome volatility injury to dicamba-sensitive plants (Example 31); details: in vivo
# From the text: In this case, the diglycolamine salt of dicamba (CLARITY®) was used for comparison.
# Dicamba photo-labile ester formulations from Example 28 were mixed with a commercial glyphosate formulation (ROUNDUP POWERMAX®) and diluted to provide a solution with a 0.5% dicamba equivalent concentrate of the ester (or dicamba diglycolamine salt) and 1.5% concentrate of glyphosate. The mixtures were sprayed at a 10 gallon per acre (93.5 liters per hectare) rate on soil in a plastic container (“humidome”) with a transparent lid. One soil container was sprayed with water as a control. Four glyphosate-tolerant, dicamba-sensitive soy plants between V2 and V3 stage were immediately placed on the sprayed soil and the domes attached to the trays with binder clips. The soy plants were in pots placed directly on the soil but with aluminum foil wrapped around the bottom to prevent uptake of dicamba or dicamba esters through the roots.
# The closed containers were held for 24 hours in a growth chamber which was maintained at 35° C. with 40% relative humidity. The plants were then removed and grown in a greenhouse for three weeks. At this time plant injury and growth stage were assessed compared to the control treated with water only.
# [4] = tested on: soybeans; experiment: Humidome volatility injury, ester 32a emulsifiable concentrate (Example 32); details: in vivo
# From the text: […] The mixtures were sprayed at a 10 gallon per acre (93.5 liters per hectare) rate on soil in a plastic container (“humidome”) with a transparent lid. One soil container was sprayed with water as a control. Four glyphosate-tolerant, dicamba-sensitive soy plants between V2 and V3 stage were immediately placed on the sprayed soil and the domes attached to the trays with binder clips. The soy plants were in pots placed directly on the soil but with aluminum foil wrapped around the bottom to prevent uptake of dicamba or dicamba esters through the roots.
# The closed containers were held for 24 hours in a growth chamber which was maintained at 35° C. with 40% relative humidity. […] At this time plant injury and growth stage were assessed compared to the control treated with water only.
# [5] = Field dicamba volatility, airborne dicamba collected by air samplers (Example 34); type: physicochemical; details: field plot, 0.5 lb/acre dicamba a.e. with ROUNDUP WEATHERMAX, airborne dicamba collected over 24 hours, maximum 86° F.
# [6] = tested on: velvetleaf; experiment: Greenhouse post-emergent control of velvetleaf by emulsifiable concentrates (Example 37); type: in vivo; details: greenhouse, Example 37
# In short: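 Photo-labile dicamba ester emulsifiable concentrates sprayed post-emergence in the greenhouse on velvetleaf 10-15 cm tall at 140, 280, 420 and 560 g dicamba equivalent per hectare. Percent control scored three weeks after treatment.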
# [7] = tested on: hemp sesbania; experiment: Field testing of emulsifiable concentrates, post-emergent control (Example 38); type: in vivo; details: 11 or 21 days after treatment
# From the text: (§2) Four dicamba esters, 1a, 2, 9, and 13a, were formulated as emulsifiable concentrates for field testing. All formulations contained 5% each of a alkylbenzene sulfonate calcium salt (Huntsman NANSA EVM 62/H or Akzo Nobel WITCONATE P-1220 EH) and castor oil ethoxylate (Huntsman SURFONIC CO-54) as the emulsifiers and Aromatic 200 (Exxon) or monochlorobenzene (MCB) as the solvent.
# (§3) The esters were compared to the diglycolamine salt of dicamba (CLARITY™) for post-emergent control of three broadleaf weeds: velvetleaf, morning glory, and hemp sesbania. Rates of 280 and 420 g dicamba acid equivalent per hectare were used. […] Evaluations were conducted at 11 or 21 days after treatment. Locations and timing were identical for all formulations tested.
# [8] = tested on: morning glory; experiment: as above; type: in vivo; details: 11 or 21 days after treatment
# From the text: as §2, §3
# [9] = tested on: velvetleaf; experiment: as above; type: in vivo; details: 11 or 21 days after treatment
# From the text: as §2, §3
# [10] = tested on: Euphorbia species; experiment: Field testing for post-emergent activity in the Southern Hemisphere (Example 39); type: in vivo; details: 9 as suspension concentrate, other esters as emulsifiable concentrates
# Method: The primary weeds were Euphorbia species. Ester 9 was tested as a suspension concentrate using the formulation of Example 33 The other esters were tested as emulsifiable concentrates having the formulations shown in the table below. Akzo Nobel SPONTO EC 334 and SPONTO EC 336 along with SURFONIC CO-54 and […] (Huntsman) were used as emulsifiers and Aromatic 200 (A 200; Exxon) was used as the solvent. […] The diglycolamine salt of dicamba (CLARITYTM) was used as a comparator.
# [11] = tested on: hemp sesbania; experiment: Field testing of emulsifiable concentrates, post-emergent control (Example 40); type: in vivo; details: for % control 19 days after treatment, 280 g/ha, Hemp sesbania: 280 g dicamba acid equivalent per hectare; for % control 19 days after treatment, 560 g/ha, Hemp sesbania: 560 g dicamba acid equivalent per hectare
# Method: (§4) Three dicamba esters, 30a, 32a, and 36a, were formulated as emulsifiable concentrates for field testing. All surfactants are commercial materials from Stepan.
# (§5) The formulations were tested in the field. Locations and timing were identical for the three esters, but differed slightly for the diglycolamine control. The esters were compared to the diglycolamine salt of dicamba (CLARITY™) for post-emergent control of three broadleaf weeds: velvetleaf, morning glory, and hemp sesbania. Rates of 280 and 560 g dicamba acid equivalent per hectare were used.
# [12] = tested on: morning glory; experiment: as above; type: in vivo; details: for % control 19 days after treatment, 280 g/ha, Morning glory: 280 g dicamba acid equivalent per hectare; for % control 19 days after treatment, 560 g/ha, Morning glory: 560 g dicamba acid equivalent per hectare
# Method: as §4, §5
# [13] = tested on: velvetleaf; experiment: as above; type: in vivo; details: for % control 19 days after treatment, 280 g/ha, Velvetleaf: 280 g dicamba acid equivalent per hectare; for % control 19 days after treatment, 560 g/ha, Velvetleaf: 560 g dicamba acid equivalent per hectare
# Method: as §4, §5
# [14] = In vitro photo-release and hydrolytic release of dicamba in an aqueous medium (Example 35); type: physicochemical; details: 0.01 mM ester, 35° C.
# Method: This Example describes the determination of photo-lability and hydrolytic lability of dicamba esters in an aqueous medium. 1 mM solutions of the esters were prepared in acetonitrile (or […] solutions of dicamba diesters). The solutions were then diluted with deionized water to a concentration of 0.01 mM (or 0.005 mM for diesters). The solutions were then transferred to quartz tubes and amber bottles and held in a growth chamber by the procedure of Example 26. A 14-hour day was generally used at a constant temperature of 35° C. Hydrolytic activity was assessed by measuring the increase in dicamba concentration after day zero in the amber (dark) bottles. […] Photolysis manifested itself as increased conversion in the quartz tubes compared to the dark control.
# [15] = tested on: three broadleaf weeds: velvetleaf, morning glory, and hemp sesbania; experiment: Field testing of Example 40, overall post-emergent activity in words; type: in vivo; details: 280 and 560 g dicamba acid equivalent per hectare
# Method: as §4, §5
# [16] = tested on: broadleaf weeds; experiment: Control of broadleaf weeds by ester concentrates (statements of the description); type: in vivo; details: emulsifiable and suspension concentrates; Sesbania macrocarpa, morning glory, velvetleaf, Palmer amaranth, fat hen, sicklepod
# [17] = 280 g dicamba acid equivalent per hectare
# [18] = 420 g dicamba acid equivalent per hectare
compound,measurement,setting,value
"COc1c(Cl)ccc(Cl)c1C(=O)O.NCCOCCO [Diglycolamine salt, diglycolamine salt of dicamba, reference compound]","% Control of velvetleaf, 140 g/ha",[1]; 140 g dicamba equivalent per hectare,44%
same,"% Control of velvetleaf, 280 g/ha",[1]; 280 g dicamba equivalent per hectare,63%
same,"% Control of velvetleaf, 420 g/ha",[1]; 420 g dicamba equivalent per hectare,68%
same,"% Control of velvetleaf, 560 g/ha",[1]; 560 g dicamba equivalent per hectare,83%
same,"% Control of velvetleaf, 140 g/ha",[2]; 140 g/ha,54%
same,"% Control of velvetleaf, 280 g/ha",[2]; 280 g/ha,86%
same,"% Control of velvetleaf, 420 g/ha",[2]; 420 g/ha,96%
same,"% Control of velvetleaf, 560 g/ha",[2]; 560 g/ha,96%
same,Growth Stage,[3],6
same,average injury to soybeans,[4],60%
same,average dicamba level from the five air samplers,[5],11.1 ng/m^3
same,"% Control of velvetleaf, 140 g/ha",[6]; 140 g/ha,43.3%
same,"% Control of velvetleaf, 280 g/ha",[6]; 280 g/ha,65.8%
same,"% Control of velvetleaf, 420 g/ha",[6]; 420 g/ha,87.5%
same,"% Control of velvetleaf, 560 g/ha",[6]; 560 g/ha,90.0%
same,"% control, 280 g/ha, Hemp sesbania",[7]; [17],81%
same,"% control, 420 g/ha, Hemp sesbania",[7]; [18],88%
same,"% control, 280 g/ha, Morning glory",[8]; [17],100%
same,"% control, 420 g/ha, Morning glory",[8]; [18],100%
same,"% control, 280 g/ha, Velvetleaf",[9]; [17],87%
same,"% control, 420 g/ha, Velvetleaf",[9]; [18],91%
same,"% control, 0.25 lb/ac (0.28 kg/hectare)",[10]; 0.25 lb dicamba a.e. per acre,53%
same,"% control, 0.50 lb/ac (0.56 kg/hectare)",[10]; 0.50 lb dicamba a.e. per acre,70%
same,"% control 19 days after treatment, 280 g/ha, Hemp sesbania",[11],89 ± 5%
same,"% control 19 days after treatment, 560 g/ha, Hemp sesbania",[11],96 ± 2%
same,"% control 19 days after treatment, 280 g/ha, Morning glory",[12],89 ± 11%
same,"% control 19 days after treatment, 560 g/ha, Morning glory",[12],94 ± 12%
same,"% control 19 days after treatment, 280 g/ha, Velvetleaf",[13],78 ± 10%
same,"% control 19 days after treatment, 560 g/ha, Velvetleaf",[13],91 ± 7%
"COc1ccc(OC(=O)c2c(Cl)ccc(Cl)c2OC)cc1 [Ester 30a, 4-methoxyphenyl ester of dicamba]","Conversion to Dicamba, Dark, Day 0","[14]; amber (dark) bottle, Day 0",6%
same,"Conversion to Dicamba, Dark, Day 3","[14]; amber (dark) bottle, Day 3",5%
same,"Conversion to Dicamba, Dark, Day 14","[14]; amber (dark) bottle, Day 14",17%
same,"Conversion to Dicamba, Dark, Day 21","[14]; amber (dark) bottle, Day 21",17%
same,"Conversion to Dicamba, Dark, Day 28","[14]; amber (dark) bottle, Day 28",19%
same,"Conversion to Dicamba, Light, Day 0","[14]; quartz tube, 14-hour day, Day 0",6%
same,"Conversion to Dicamba, Light, Day 3","[14]; quartz tube, 14-hour day, Day 3",14%
same,"Conversion to Dicamba, Light, Day 14","[14]; quartz tube, 14-hour day, Day 14",23%
same,"Conversion to Dicamba, Light, Day 21","[14]; quartz tube, 14-hour day, Day 21",29%
same,"Conversion to Dicamba, Light, Day 28","[14]; quartz tube, 14-hour day, Day 28",36%
same,pest or weed control at 140 g/ha,"[6]; Abutilon theophrasti, post-emergence, 504 h, 140 g/ha, read-out: % Control of velvetleaf, 140 g/ha",19.2%
same,pest or weed control at 280 g/ha,"[6]; Abutilon theophrasti, post-emergence, 504 h, 280 g/ha, read-out: % Control of velvetleaf, 280 g/ha",12.5%
same,pest or weed control at 420 g/ha,"[6]; Abutilon theophrasti, post-emergence, 504 h, 420 g/ha, read-out: % Control of velvetleaf, 420 g/ha",18.3%
same,pest or weed control at 560 g/ha,"[6]; Abutilon theophrasti, post-emergence, 504 h, 560 g/ha, read-out: % Control of velvetleaf, 560 g/ha",15%
same,"% control 19 days after treatment, 280 g/ha, Hemp sesbania",[11],50 ± 20%
same,"% control 19 days after treatment, 560 g/ha, Hemp sesbania",[11],67 ± 13%
same,"% control 19 days after treatment, 280 g/ha, Morning glory",[12],79 ± 7%
same,"% control 19 days after treatment, 560 g/ha, Morning glory",[12],78 ± 10%
same,"% control 19 days after treatment, 280 g/ha, Velvetleaf",[13],56 ± 25%
same,"% control 19 days after treatment, 560 g/ha, Velvetleaf",[13],65 ± 25%
same,"post-emergent activity compared with the dicamba salt, in words",[15],less efficacious
same,"control of a number of broadleaf weeds in field testing, in words",[16],proven effective
